Results from patent publication US10765706B2, “Method of stem cell delivery into the brain during chronic disease using blood brain barrier permeabilizers” (University of South Florida, priority 2015, dated 2020).

Tests used:
Assay type in all cases: in vivo, Sprague-Dawley rats
[1] = system: middle cerebral artery occlusion (MCAO) stroke rats; assay: Histological analysis of brain cell survival, chronic stroke, FIG. 2; settings: treatment 1 month after MCAO
Method: The hUCBC (Saneron CCEL Therapeutics, Inc., Tampa, Fla.) were thawed at 37° C. Cells were washed and centrifuged three times (1000 rpm for 7 minutes). Viability was determined using the trypan blue dye exclusion method and cell concentration was adjusted to 10,000 cells/μl. A minimum of 85% viability post-thaw was required for a sample to be used for transplantation. For hUCBC+BBB, 200,000 hUCB cells were suspended in 10 μl PBS in a 28-gauge Hamilton syringe. For hUCBC only, 2×10^6 cells were suspended in XX μl PBS. The BBB only treatment was injected as prepared. Treatments were administered by intra-arterial injection into the internal carotid artery where the embolic filament was previously inserted. Infusion rate was 1 μl per minute as determined by using a micro-infusion pump.

[2] = system: middle cerebral artery occlusion (MCAO) stroke rats; assay: Neurogenesis, chronic stroke, FIG. 7; settings: treatment 1 month after MCAO
Method: (§1) Adult Sprague-Dawley rats initially received sham surgery or experimental stroke via the one-hour middle cerebral artery occlusion (MCAO) model, as disclosed in Example 2. At 1 month after the MCAO surgery, stroke animals were randomly assigned to receive human umbilical cord stem cells only (2 million viable cells), mannitol only (1.1 mol/L mannitol at 4° C.), combined human umbilical cord stem cells (200,000 viable cells) and mannitol (1.1 mol/L mannitol at 4° C.), and vehicle (phosphate buffered saline, PBS) only.
(§2) The hUCBC (Saneron CCEL Therapeutics, Inc., Tampa, Fla.) were thawed at 37° C. Cells were washed and centrifuged three times (1000 rpm for 7 minutes). Viability was determined using the trypan blue dye exclusion method and cell concentration was adjusted to 10,000 cells/μl. A minimum of 85% viability post-thaw was required for a sample to be used for transplantation. For hUCBC+BBB, 200,000 hUCB cells were suspended in 10 μl PBS in a 28-gauge Hamilton syringe. For hUCBC only, 2×10^6 cells were suspended in […] PBS. The BBB only treatment was injected as prepared. Treatments were administered by intra-arterial injection into the internal carotid artery where the embolic filament was previously inserted. Infusion rate was 1 μl per minute as determined by using a micro-infusion pump.

[3] = system: middle cerebral artery occlusion (MCAO) stroke rats; assay: Motor asymmetry, chronic stroke (treatment 1 month after MCAO), FIG. 1; settings: intra-arterial, hUCBC only 2 million cells, combination 200,000 cells + 1.1 mol/L mannitol
Method: as §1, §2

Q: How did the “cell survival (brain damage, peri-infarct area)” value [1] turn out when `OC[C@@H](O)[C@@H](O)[C@H](O)[C@H](O)CO` [mannitol] was run?
A: significant brain damage

Q: What about the “neurogenesis, increase above sham-operated rats” value [2] of the same compound?
A: without concomitant neurogenesis

Q: And the motor asymmetry [3]?
A: lowered the motor asymmetry slightly
